Data from patent US10117909B2, “Combination of an insulin and a GLP-1 agonist” (Sanofi-Aventis Deutschland GmbH, priority 2008, dated 2018).
“Also recorded” adds a separate entry of the source.

Test: Oral glucose tolerance test (OGTT) in healthy dogs
Assay type: in vivo, dog
Details: male beagle, n=6, single s.c. injection at time 0, insulin glargine 0.3 U/kg, AVE0010 10 μg/kg, relative to Lantus placebo; for OGTT-induced postprandial increase in blood glucose: repeated OGTT 2 g/kg p.o. at 30 min and 5 h; for blood glucose concentration in the postabsorptive phase: repeated OGTT 2 g/kg p.o.
Procedure: Model: Oral glucose tolerance test (OGTT) in healthy dogs: Comparison of the insulin glargine/AVE0010 combination with the two individual active compounds.
• Male normoglycemic beagles • Bodyweight: ˜15 kg • Number per group: n=6 Study Design (See FIG. 1) • Individual subcutaneous injections of placebo or test formulation at time 0 • 2 oral administrations of glucose, at 2 g of glucose/kg of bodyweight, at times 30 min and 5 h • Blood samples are taken to determine blood glucose, plasma insulin, and c-peptide Group Division (n=6) • Placebo (Lantus placebo formulation without API) • Insulin glargine (0.3 μl/kg s.c., equivalent to 1.8 nmol/kg). Insulin glargine is Gly(A21)-Arg(B31)-Arg(B32) human insulin. • AVE0010 (10 μg/kg s.c. in Lantus placebo formulation, equivalent to 2 nmol/kg).
AVE0010 is des Pro^36exendin-4(1-39)-Lys6-NH2. • AVE0010/insulin glargine combination (10 μg/kg AVE0010/0.3 μl/kg insulin glargine s.c.)

Substance: Gly(A21)-Arg(B31)-Arg(B32) human insulin [insulin glargine]
- OGTT-induced postprandial increase in blood glucose: does not prevent the OGTT-induced increase in blood glucose; also recorded: has no effect on the postprandial glucose level
- blood glucose concentration in the postabsorptive phase: reinforces the expected delayed lowering of blood glucose concentration in the postabsorptive phase

Substance: des Pro^36exendin-4(1-39)-Lys6-NH2 [AVE0010]
- OGTT-induced postprandial increase in blood glucose: prevents the OGTT-induced postprandial increase in blood glucose almost completely
- blood glucose concentration in the postabsorptive phase: no effect on the glucose concentration in the postabsorptive phase; also recorded: has no effect on the level of glucose, which has fallen again following administration of glucose
